According to US8475851B2, “Preparations with wood extracts of locust trees” (Symrise AG, priority 2011, dated 2013):

Test system: 3T3-L1 cells
Test: Adipogenesis assay
Format: cell-based, mouse
Conditions: for Adipogenesis inhibition, result in words: concentration tested
Experimental: 3T3-L1 cells (mouse embryonic fibroblast-like adipocyte cell line) are seeded in a 48-well plate with collagen I coating at a concentration of 3×10^4 cells/well. After culture for 72 h at 37° C. and 5% CO2 in DMEM (Dulbecco's Modified Eagle's Medium), enriched with 10% calf serum, various concentrations of the test samples are added to DMEM, enriched with 10% fetal calf serum supplemented with 1 μg/ml insulin, 0.25 μM dexamethasone and 0.5 mM IBMX (3-isobutyl-1-methylxanthine), and incubated for a further 48 h. The medium is changed, applying DMEM, enriched with 10% fetal calf serum supplemented with 1 μg/ml insulin. After further cultivation for 48 h, the medium is changed again, applying DMEM enriched with 10% fetal calf serum.
After incubation for a further 72 h, the intracellularly stored lipids are quantified as a measure for the differentiation of the cells, by measuring the fluorescence after staining the lipids with the fluorescent dye Nile Red.
The inhibition of adipogenesis in the presence of the test samples is calculated from the following equation:
[formula] with RFU test substance=relative fluorescence units of the wells with test substance and with cells RFU control=relative fluorescence units of the wells without test substance, but with cells RFU control without cells=relative fluorescence units of the wells without test substance and without cells.
IC50 is calculated from the adipogenesis inhibition [%] in a series of dilutions of samples tested. This is the concentration at which adipogenesis is inhibited 50%.

## O=C1c2ccc(O)cc2OC(c2ccc(O)c(O)c2)C1O (stereo not shown) [Fustin, 3,3′,4′,7-tetrahydroxyflavanone]
  Adipogenesis inhibition, result in words: do not show any activity
Test concentration 0.0005 % (corresponds to content 1.5 wt. % in BIO781/2)
  Adipogenesis inhibition: No inhibition

## O=c1c(O)c(-c2ccc(O)c(O)c2)oc2cc(O)ccc12 [Fisetin, 3,3′,4′,7-tetrahydroxyflavone]
  Adipogenesis inhibition, result in words: do not show any activity
Test concentration 0.0003 % (corresponds to content 1.0 wt. % in BIO781/2)
  Adipogenesis inhibition: No inhibition
